Drawing on patent US9328106B2, “Cyclic ether pyrazol-4-yl-heterocyclyl-carboxamide compounds and methods of use” (Genentech, Inc., priority 2012, dated 2016), this text covers IC50, Ki and EC50 for 26 compounds.

Usually IC50 stands for the midpoint of a concentration-inhibition curve. For orientation: Ki means the dissociation constant of the complex between target and ligand, obtained from inhibition or displacement. For orientation: EC50 means the concentration that produces a half-maximal response.

One assay relates to BaF3 parental cells. Put plainly: In vitro cell proliferation, BaF3 parental line + IL3.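 Also: BaF3 parental cells are murine IL-3 dependent pro-B cells grown with 2 ng/mL mIL-3, 384-well format, viability read by luminescence.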 Type of assay: cell-based, murine. The conditions noted are these: Mus musculus, BaF3, BaF3 parental, mIL-3, incubated overnight, CELL TITER GLO; read-out: Prolif BaF3 IL3 (IC50).
Another assay has as its target PIM1 (Homo sapiens (Human), UniProt P11309). Put plainly: biochemical. Type of assay: biochemical. The conditions noted are these: 20 pM PIM1, 1 μM FAM-peptide, 10 μM ATP, 90 minutes at room temperature; read-out: PIM1 LC3K (KI).
For a further assay, the system named is BaF3 PIM1 cells. In words: In vitro cell proliferation, BaF3 transfected with PIM1.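 Also: murine IL-3-dependent pro-B BaF3 cells transfected with PIM1, compound exposure overnight at 37 °C under 5% CO2, viability read as luminescence.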 Type of assay: cell-based, murine. The conditions noted are these: Mus musculus.
Assay [1] has as its system MM1.S (multiple myeloma) cells. Put plainly: In vitro cell proliferation, MM1.S multiple myeloma cells.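 Also: cells cultured in RPMI with 10% FBS and 2 mM L-Glutamine, seeded in 384-well plates, exposed to compound, cell viability measured by luminescence after CellTiter-Glo addition.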 Type of assay: cell-based. The conditions noted are these: Homo sapiens, MM1.S, 72 h, MM1.S cells, 72 hours, CELL TITER GLO; read-out: Prolif MM1S ATP (EC50). In general terms: In ATP-based viability assays light output follows the ATP content of the culture.
Description: (§1) BaF3 parental line was obtained from the DSMZ repository. […] Media for BaF3 parental line contained RPMI, 10% FBS, 2 mM L-Glutamine, 2 ng/mL mIL-3. Media for BaF3 PIM1 & 2 lines contained RPMI, 10% FBS, 2 mM L-Glutamine, 250 μg/mL. Media for MM1.S (multiple myeloma cells) line contained RPMI, 10% FBS, 2 mM L-Glutamine.
(§2) BaF3, a murine interleukin-3 dependent pro-B cell line, parental cells, BaF3 PIM1 cells, BaF3 PIM2 cells, and MM1.S (multiple myeloma) cells were seeded at 2 k/well, 5 k/well, 5 k/well, and 10 k/well respectively, in a 384-well plate, at 45 μL/well. Test compound was added at 5 μL/well. BaF3 cells (parental and transfected) were incubated overnight, while MM1.S cells were incubated for 72 hours at 37° C., 5% CO2. CELL TITER GLO® Reagent (Promega) was added at 50 μL/well, the plates were incubated for 30 minutes, and their luminescence read on an HT Analyst. IC50/EC50 values for the test compound were calculated.
Setting [2] is: BaF3, read-out: Prolif BaF3 PIM1 (IC50), BaF3 PIM1 cells, incubated overnight, CELL TITER GLO.
The mark [3] stands for this setting: BaF3 PIM1 cells, incubated overnight, CELL TITER GLO, read-out: Prolif BaF3 PIM1 (IC50).

Structures are written as SMILES. Like-named read-outs stand apart in the source and are kept apart here.

PIM1, sequence (P11309 whole entry): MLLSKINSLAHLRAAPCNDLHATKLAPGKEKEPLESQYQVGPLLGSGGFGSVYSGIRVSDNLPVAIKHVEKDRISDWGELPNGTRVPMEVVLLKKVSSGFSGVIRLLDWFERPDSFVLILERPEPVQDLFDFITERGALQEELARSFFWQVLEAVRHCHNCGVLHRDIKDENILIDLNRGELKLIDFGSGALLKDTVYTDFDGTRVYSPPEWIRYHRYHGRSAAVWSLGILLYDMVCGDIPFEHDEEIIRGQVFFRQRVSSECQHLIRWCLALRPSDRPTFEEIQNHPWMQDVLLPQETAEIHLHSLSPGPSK
Description for BaF3 PIM1 cells: as §1, §2

`Cn1ncc(NC(=O)c2csc(-c3n[nH]c4c3CCCC4)n2)c1[C@@H]1CC[C@@H](N)[C@H](F)CO1` [Example 374, N-(5-((2S,5R,6S)-5-amino-6-fluorooxepan-2-yl)-1-methyl-1H-pyrazol-4-yl)-2-(4,5,6,7-tetrahydro-1H-indazol-3-yl)thiazole-4-carboxamide]: the IC50 in the assay on BaF3 parental cells was found to be 13100 nM. The inhibition constant Ki on PIM1 amounted to 0.023 nM. On to `Cn1ncc(NC(=O)c2nc(-c3c(F)cccc3F)sc2N)c1[C@]12CC[C@H](O1)[C@@H](N)CC2` [Example 115, 5-amino-N-(5-((1S,4S,5S)-4-amino-8-oxabicyclo[3.2.1]octan-1-yl)-1-methyl-1H-pyrazol-4-yl)-2-(2,6-difluorophenyl)thiazole-4-carboxamide], for which, in the assay on BaF3 PIM1 cells (setting [2]), the IC50 came to 19.2 nM.

`Cc1nn(C)c(F)c1-c1nc(C(=O)Nc2cnn(C)c2[C@@H]2CC[C@@H](N)[C@H](F)CO2)cs1` [Example 286, N-(5-((2S,5R,6S)-5-amino-6-fluorooxepan-2-yl)-1-methyl-1H-pyrazol-4-yl)-2-(5-fluoro-1,3-dimethyl-1H-pyrazol-4-yl)thiazole-4-carboxamide]: the IC50 in the assay with BaF3 parental cells came out at 11300 nM; in the assay with BaF3 PIM1 cells (setting [3]), 947 nM. In assay [1], the EC50 was 12600 nM. For `Cc1ccc(-c2nc(C(=O)Nc3cnn(C)c3[C@@H]3CC[C@@H](N)[C@H](F)CO3)cs2)c(F)c1` [Example 316, N-(5-((2S,5R,6S)-5-amino-6-fluorooxepan-2-yl)-1-methyl-1H-pyrazol-4-yl)-2-(2-fluoro-4-methylphenyl)thiazole-4-carboxamide] the same measures were 9300 nM, 126 nM and 686 nM. Consider `Cn1ncc(NC(=O)c2nc(-c3c(F)cccc3F)sc2N)c1[C@@]12CC[C@H](N)[C@@H](CC1)O2` [Example 117, 5-amino-N-(5-((1R,4S,5R)-4-amino-8-oxabicyclo[3.2.1]octan-1-yl)-1-methyl-1H-pyrazol-4-yl)-2-(2,6-difluorophenyl)thiazole-4-carboxamide], for which, in assay [1], the EC50 worked out at 122 nM. Also, in the assay on BaF3 PIM1 cells (setting [2]), the IC50 turned out to be 30.7 nM.

Consider `Cn1ncc(NC(=O)c2csc(-c3cc(C4CC4)ccc3F)n2)c1[C@@H]1CC[C@@H](N)[C@H](F)CO1` [Example 310, N-(5-((2S,5R,6S)-5-amino-6-fluorooxepan-2-yl)-1-methyl-1H-pyrazol-4-yl)-2-(5-cyclopropyl-2-fluorophenyl)thiazole-4-carboxamide], for which the Ki at PIM1 is 0.093 nM.

Take `Cn1ncc(NC(=O)c2nc(-c3c(F)cccc3F)sc2N)c1[C@H]1CCC(F)[C@@H](N)CO1` (stereo in doubt) [Example 145, 5-Amino-N-[5-[6-amino-5-fluoro-oxepan-2-yl]-1-methyl-pyrazol-4-yl]-2-(2,6-difluorophenyl)thiazole-4-carboxamide]: on PIM1, the Ki came out at 0.351 nM.

As to `CN(C)C(=O)c1ccc(F)c(-c2nc(C(=O)Nc3cnn(C)c3[C@@H]3CC[C@@H](N)[C@H](F)CO3)cs2)c1F` [Example 376, N-[5-[(2S,5R,6S)-5-amino-6-fluoro-oxepan-2-yl]-1-methyl-pyrazol-4-yl]-2-[3-(dimethylcarbamoyl)-2,6-difluoro-phenyl]thiazole-4-carboxamide], at PIM1, the Ki came out at 0.727 nM. For the compound `Cn1ncc(NC(=O)c2ccc(F)c(-c3c(F)cc(C(C)(C)O)cc3F)n2)c1[C@@H]1CC[C@@H](N)[C@H](F)CO1` [Example 200, N-(5-((2S,5R,6S)-5-amino-6-fluorooxepan-2-yl)-1-methyl-1H-pyrazol-4-yl)-6-(2,6-difluoro-4-(2-hydroxypropan-2-yl)phenyl)-5-fluoropicolinamide], on PIM1, the Ki amounted to 0.011 nM.

For the compound `CO[C@H]1CO[C@H](c2c(NC(=O)c3nc(-c4c(F)cccc4C(F)(F)F)sc3N)cnn2C)CC[C@H]1N` [Example 279, 5-amino-N-(5-((2S,5R,6R)-5-amino-6-methoxyoxepan-2-yl)-1-methyl-1H-pyrazol-4-yl)-2-(2-fluoro-6-(trifluoromethyl)phenyl)thiazole-4-carboxamide], the Ki on PIM1 is 0.083 nM. `Cn1ncc(NC(=O)c2nc(-c3c(F)cccc3F)sc2N)c1C1CC(F)(F)CC(N)CO1` (centres unmarked) [Example 133, 5-amino-N-[5-(6-amino-4,4-difluoro-oxepan-2-yl)-1-methyl-pyrazol-4-yl]-2-(2,6-difluorophenyl)thiazole-4-carboxamide]: at PIM1, the Ki is 0.076 nM. Turning to `Cn1ncc(NC(=O)c2nc(-c3cccc(Cl)c3F)sc2N)c1[C@@H]1CC[C@@H](N)[C@H](F)CO1` [Example 338, 5-amino-N-(5-((2S,5R,6S)-5-amino-6-fluorooxepan-2-yl)-1-methyl-1H-pyrazol-4-yl)-2-(3-chloro-2-fluorophenyl)thiazole-4-carboxamide], the Ki at PIM1 is 0.007 nM. In the case of `COc1cc(F)c(-c2nc(C(=O)Nc3cnn(C)c3[C@@H]3CC[C@@H](N)[C@H](F)CO3)ccc2F)c(F)c1` [Example 201, N-(5-((2S,5R,6S)-5-amino-6-fluorooxepan-2-yl)-1-methyl-1H-pyrazol-4-yl)-6-(2,6-difluoro-4-methoxyphenyl)-5-fluoropicolinamide], the Ki at PIM1 came out at 0.019 nM.

For the compound `Cn1ncc(NC(=O)c2nc(-c3c(F)cccc3F)sc2N)c1[C@H]1CC(F)[C@@H](N)CCO1` (stereo partly drawn) [Example 151, 5-Amino-N-[5-[(2R,5S)-5-amino-4-fluoro-oxepan-2-yl]-1-methyl-pyrazol-4-yl]-2-(2,6-difluorophenyl)thiazole-4-carboxamide], the Ki on PIM1 stood at 0.068 nM.

Regarding `Cn1ncc(NC(=O)c2csc(-c3cccc(Cl)c3F)n2)c1[C@@H]1CC[C@@H](N)[C@@H](F)CO1` [Example 248, N-(5-((2S,5R,6R)-5-amino-6-fluorooxepan-2-yl)-1-methyl-1H-pyrazol-4-yl)-2-(3-chloro-2-fluorophenyl)thiazole-4-carboxamide], the Ki on PIM1 stood at 0.064 nM.

Take `Cn1ncc(NC(=O)c2nc(-c3c(F)cccc3F)sc2N)c1C1OCC(CO)CO1` (centres unmarked) [Example 164, 5-Amino-2-(2,6-difluorophenyl)-N-[5-[5-(hydroxymethyl)-1,3-dioxan-2-yl]-1-methyl-pyrazol-4-yl]thiazole-4-carboxamide]: the Ki on PIM1 worked out at 0.105 nM. For the compound `Cn1ncc(NC(=O)c2nc(-c3cccc(C(F)(F)F)c3F)sc2N)c1[C@@H]1CC[C@@H](N)[C@@H](F)CO1` [Example 268, 5-amino-N-(5-((2S,5R,6R)-5-amino-6-fluorooxepan-2-yl)-1-methyl-1H-pyrazol-4-yl)-2-(2-fluoro-3-(trifluoromethyl)phenyl)thiazole-4-carboxamide], the Ki at PIM1 is 0.028 nM.

In the case of `Cn1ncc(NC(=O)c2ccc(F)c(-c3c(F)cc(C4(O)CCC4)cc3F)n2)c1[C@@H]1CC[C@@H](N)[C@@H](F)CO1` [Example 290, N-(5-((2S,5R,6R)-5-amino-6-fluorooxepan-2-yl)-1-methyl-1H-pyrazol-4-yl)-6-(2,6-difluoro-4-(1-hydroxycyclobutyl)phenyl)-5-fluoropicolinamide], the Ki on PIM1 turned out to be 0.0131 nM. Take `COc1cc(F)c(-c2nc(C(=O)Nc3cnn(C)c3[C@@H]3CC[C@@H](N)[C@@H](F)CO3)cs2)c(F)c1` [Example 288, N-(5-((2S,5R,6R)-5-amino-6-fluorooxepan-2-yl)-1-methyl-1H-pyrazol-4-yl)-2-(2,6-difluoro-4-methoxyphenyl)thiazole-4-carboxamide]: the Ki on PIM1 stood at 0.035 nM. The same measure, in the same setting: with `Cn1ncc(NC(=O)c2csc(-c3ccc[nH]c3=O)n2)c1[C@@H]1CC[C@@H](N)[C@H](F)CO1` [Example 233, N-(5-((2S,5R,6S)-5-amino-6-fluorooxepan-2-yl)-1-methyl-1H-pyrazol-4-yl)-2-(2-oxo-1,2-dihydropyridin-3-yl)thiazole-4-carboxamide] the figure was 0.103 nM; with `Cn1ncc(NC(=O)c2csc(-c3ccncc3F)n2)c1[C@@H]1CC[C@@H](N)[C@H](F)CO1` [Example 240, N-(5-((2S,5R,6S)-5-amino-6-fluorooxepan-2-yl)-1-methyl-1H-pyrazol-4-yl)-2-(3-fluoropyridin-4-yl)thiazole-4-carboxamide], 0.34 nM. For `COc1ccc(-c2nc(C(=O)Nc3cnn(C)c3[C@@H]3CC[C@@H](N)[C@H](F)CO3)cs2)c(F)c1` [Example 293, N-(5-((2S,5R,6S)-5-amino-6-fluorooxepan-2-yl)-1-methyl-1H-pyrazol-4-yl)-2-(2-fluoro-4-methoxyphenyl)thiazole-4-carboxamide], the Ki on PIM1 is 0.059 nM. As to `Cn1ncc(NC(=O)c2nc(C3CCCC3)sc2N)c1[C@@H]1CC[C@@H](N)[C@H](F)CO1` [Example 334, 5-amino-N-(5-((2S,5R,6S)-5-amino-6-fluorooxepan-2-yl)-1-methyl-1H-pyrazol-4-yl)-2-cyclopentylthiazole-4-carboxamide], the Ki at PIM1 worked out at 0.453 nM.

On to `Cn1ncc(NC(=O)c2csc(-c3c(F)cccc3F)n2)c1[C@@H]1CC[C@@H](N)[C@@H](O)CO1` [Example 350, N-(5-((2S,5R,6R)-5-amino-6-hydroxyoxepan-2-yl)-1-methyl-1H-pyrazol-4-yl)-2-(2,6-difluorophenyl)thiazole-4-carboxamide], for which the Ki at PIM1 was above 667 nM. Turning to `Cn1ncc(NC(=O)c2csc(-c3c(F)cc(C4(O)CC4)cc3F)n2)c1[C@@H]1CC[C@@H](N)[C@H](F)CO1` [Example 225, N-(5-((2S,5R,6S)-5-amino-6-fluorooxepan-2-yl)-1-methyl-1H-pyrazol-4-yl)-2-(2,6-difluoro-4-(1-hydroxycyclopropyl)phenyl)thiazole-4-carboxamide], at PIM1, the Ki came to 0.028 nM. Regarding `Cn1ncc(NC(=O)c2csc(-c3ccc(Cl)cc3F)n2)c1[C@@H]1CC[C@@H](N)[C@H](F)CO1` [Example 313, N-(5-((2S,5R,6S)-5-amino-6-fluorooxepan-2-yl)-1-methyl-1H-pyrazol-4-yl)-2-(4-chloro-2-fluorophenyl)thiazole-4-carboxamide], the Ki at PIM1 came out at 0.002 nM.
